Laboratory results taken from patent US20160040126A1, “REGULATION OF DIFFERENTIATION INTO DOPAMINERGIC NEURONS BY METALLOPROTEASE” (Korea University Research and Business Foundation, priority 2012, published 2016).

How the values were obtained:
[1] = test system: midbrain neurons derived from normal mice and D2R−/− mice; assay: Differentiation of midbrain neurons into dopaminergic neural cells (TH immunostaining: number of TH-positive cells, neurite length, neurite number); format: cell-based; conditions: for effect of the agent on the development of dopaminergic neural cells by EGF+quinpirole: co-treatment with EGF+quinpirole, normal mice and D2R−/− mice; for effect of the agent on the differentiation/development of dopaminergic neural cells by EGF: co-treatment with EGF, or siRNA knockdown before EGF
Method: Midbrain neurons derived from normal mice and D2R−/− mice were treated with each of EGF, EGF+haloperidol, EGF+AG1478 and EGF+PD98059, and then stained with TH by an immunostaining technique. Then, the number of TH-positive cells, the length of neurites and the number of neurites in the midbrain neurons were compared between EGF, EGF+haloperidol, EGF+AG1478 and EGF+PD98059 to determine the abilities to induce differentiation into dopaminergic neural cells.
Then, the number of TH-positive cells, the length of neurites and the number of neurites in the midbrain neurons were compared to determine the abilities to induce differentiation into dopaminergic neural cells.

ERK = assay: Phosphorylation of ERK in midbrain neurons; format: cell-based, mice; conditions: for effect of the agent on the phosphorylation of ERK by quinpirole: co-treatment with quinpirole, or siRNA knockdown before quinpirole; for effect of the agent on the phosphorylation of ERK by EGF: co-treatment with EGF

Molecule | effect of the agent on the development of dopaminergic neural cells by EGF+quinpirole [1] | effect of the agent on the differentiation/development of dopaminergic neural cells by EGF ([1]; midbrain neurons) | effect of the agent on the phosphorylation of ERK by quinpirole (ERK) | effect of the agent on the development of dopaminergic neural cells by quinpirole ([1]; co-treatment with quinpirole, or siRNA knockdown before quinpirole, midbrain neurons) | effect of the agent on the phosphorylation of ERK by EGF (ERK) | differentiation of dopaminergic neural cells from midbrain neurons ([1]; treated with the agent alone, normal mouse and D2R−/− mouse midbrain neurons, TH immunostaining) | phosphorylation of ERK by the agent (ERK; compared to that in the control) [%]
COc1cc2ncnc(Nc3cccc(Cl)c3)c2cc1OC [AG1478] | inhibited to the basal level | completely blocked | inhibited | – | – | – | –
CNC(=O)[C@H](Cc1c[nH]c2ccccc12)NC(=O)[C@H](CC(=O)NO)CC(C)C [GM6001, (2S)—N4-hydroxy-N1-[(1S)-1-(1H-indol-3-ylmethyl)-2-(methylamino)-2-oxoethyl]-2-isobutylsuccinamide] | – | not inhibited | inhibited to the basal level | inhibited | not influenced | – | –
COc1cccc(-c2cc(=O)c3ccccc3o2)c1N [PD98059] | – | completely blocked | – | – | – | – | –
O=C(CCCN1CCC(O)(c2ccc(Cl)cc2)CC1)c1ccc(F)cc1 [haloperidol] | not inhibited | not blocked | – | – | not inhibited | – | –
EGF: epidermal growth factor (NSDSECPLSHDGYCLHDGVCMYIEALDKYACNCVVGYIGERCQYRDLKWWELR; Epidermal growth factor; UniProt P01133 971-1023, looked up) | – | – | – | – | – | promoted | 417
